# Where “and” joins values, the source holds several entries; their conditions need not be identical. Equal entries are not always repeated.
# Target: human IDO1 (Homo sapiens, UniProt P14902)
# Experiment: Assessment of human IDO-1 inhibitory activity in Hela cells (Interferon-gamma stimulated HeLa cells, Ehrlich reagent, absorbance 490 nm)
# Type: cell-based
# Parameters: endogenous in cells; host or cells: HeLa cells stimulated with interferon-gamma
# Conditions: Hela Human IDO-1 cellular assay
# In short: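 IDO activity induced by 18 h IFN-γ (human 10 ng/ml or murine 5 ng/ml, final) after 1 h compound pre-treatment of HeLa cells at 37 °C. Supernatant kynurenine detected via Ehrlich reagent absorbance at 490 nm following 3% TCA at 50 °C; IC50 set against no-IFN-γ and untreated-stimulated controls.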
# human IDO1, sequence (P14902 whole entry): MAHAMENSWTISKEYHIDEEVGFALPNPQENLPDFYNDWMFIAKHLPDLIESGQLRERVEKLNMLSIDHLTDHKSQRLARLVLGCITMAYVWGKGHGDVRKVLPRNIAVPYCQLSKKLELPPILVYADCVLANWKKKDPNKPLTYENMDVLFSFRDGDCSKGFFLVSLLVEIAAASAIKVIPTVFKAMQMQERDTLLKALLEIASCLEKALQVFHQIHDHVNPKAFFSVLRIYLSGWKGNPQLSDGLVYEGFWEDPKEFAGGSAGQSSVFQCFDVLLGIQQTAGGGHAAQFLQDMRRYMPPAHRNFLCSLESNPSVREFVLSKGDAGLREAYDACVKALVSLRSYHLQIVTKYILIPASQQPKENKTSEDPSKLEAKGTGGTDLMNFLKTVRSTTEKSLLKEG
row,IC50,SMILES
1,< 50 nM,"CCN(c1ccc([C@@H](COC)CC(=O)O)cc1NC(=O)Nc1ccc(Cl)cc1Cl)C1CCOCC1 (single isomer, unassigned) [Example 430]"
2,> 50 nM,"COCC(CC(=O)O)c1ccc(N2CCOC[C@@H]2C(C)C)c(Nc2ccc(C#N)cc2)c1 (single isomer, unassigned) [Example 933]"
3,< 50 nM,"CCN(c1ccc([C@H](CNS(=O)(=O)C(F)(F)F)COC)cc1Nc1ccc(C#N)cc1)C1CCOCC1 [Example 1342, (R)-N-(2-(3-((4-cyanophenyl)amino)-4-(ethyl(tetrahydro-2H-pyran-4-yl)amino)phenyl)-3-methoxypropyl)-1,1,1-trifluoromethanesulfonamide]"
4,> 50 nM,"CC[C@@H](CC(=O)O)c1ccc(N(CC)C2CCOCC2)c(Nc2ccc(N(C)C)nc2)c1 (single isomer, unassigned) [Example 463]"
5,< 50 nM,"CCN(c1ccc(C(CC(=O)O)C2CC2)cc1Nc1cnc(OC)nc1)C1CCOCC1 (single isomer, unassigned) [Example 35, 3-cyclopropyl-3-(4-(ethyl(tetrahydro-2H-pyran-4-yl)amino)-3-((2-methoxypyrimidin-5-yl)amino)phenyl)propanoic acid]"
6,< 50 nM,"CCN(c1ccc(C2(CC(=O)O)CCOCC2)cc1Nc1ccc(C#N)cc1)C1CCOCC1 [Example 154, 2-(4-(3-((4-cyanophenyl)amino)-4-(ethyl (tetrahydro-2H-pyran-4-yl)amino)phenyl)tetrahydro-2H-pyran-4-yl)acetic acid]"
7,< 50 nM,"COCCN(c1ccc(C(COC)CC(=O)O)cc1Nc1ccc(F)cc1)C1CCOCC1 (single isomer, unassigned) [Example 258, 3-(3-((4-fluorophenyl)amino)-4-((2-methoxyethyl)(tetrahydro-2H-pyran-4-yl)amino)phenyl)-4-methoxybutanoic acid]"
8,< 5 nM,"CCC(CC(=O)O)c1cc(F)c(N(CC)C2CCOCC2)c(Nc2ccc(OC)nc2)c1 (single isomer, unassigned) [Example 142, 3-(4-(ethyl(tetrahydro-2H-pyran-4-yl)amino)-3-fluoro-5-((6-methoxypyridin-3-yl)amino)phenyl) pentanoic acid]"
9,< 50 nM,"COCC(CC(=O)O)c1ccc(N2CCOC[C@H]2C(C)C)c(Nc2ccc(Cl)cc2)c1 (single isomer, unassigned) [Example 910]"
10,> 50 nM,"CCC(CC(=O)O)c1ccc(N2CCC(C)CC2)c(NC(=O)Nc2ccc(C)cc2)c1 (single isomer, unassigned) [Example 46 Enantiomer 1, 3-(4-(4-Methylpiperidin-1-yl)-3-(3-(p-tolyl)ureido)phenyl)pentanoic acid]"
11,> 50 nM,"C[C@@H]1CN(c2ccc(C(CC(=O)O)C3CC3)cc2NC(=O)Nc2ccc(Cl)cc2F)C[C@H](C)O1 (single isomer, unassigned) [Example 252]"
12,< 50 nM,"CCOc1ncc(Nc2cc(C(COC)CC(=O)O)ccc2N2CCC(c3ccccc3)CC2)cn1 (single isomer, unassigned) [Example 1351, 3-(3-((2-ethoxypyrimidin-5-yl)amino)-4-(4-phenylpiperidin-1-yl)phenyl)-4-methoxybutanoic acid]"
13,< 50 nM,"CCCN(c1ccc([C@@H](CC)CC(=O)O)cc1NC(=O)Nc1ccc(C#N)cc1)C1CCOCC1 (single isomer, unassigned) [Example 545]"
14,< 50 nM,"COCC(CC(=O)O)c1ccc(N(C)C2CCOCC2)c(Nc2ccc(C#N)c(F)c2)c1 (single isomer, unassigned) [Example 875, 3-(3-((4-cyano-3-fluorophenyl)amino)-4-(methyl(tetrahydro-2H-pyran-4-yl)amino)phenyl)-4-methoxybutanoic acid]"
15,< 5 nM,"CCN(c1ccc([C@@H](COC)CC(=O)O)cc1Nc1ccc(Cl)cn1)C1CCOCC1 (single isomer, unassigned) [Example 356]"
16,< 5 nM,"CCC(CC(=O)O)c1ccc(N(CCOC)C2CCOCC2)c(Nc2ccc(Cl)cc2)c1 (single isomer, unassigned) [Example 1257 E1, 3-(3-((4-Chlorophenyl)amino)-4-((2-methoxyethyl)(tetrahydro-2H-pyran-4-yl)amino)phenyl)pentanoic acid]"
17,< 5 nM,"CCN(c1ccc([C@@H](COC)CC(=O)O)cc1Nc1ccc(C#N)c(F)c1)C1CCOCC1 (single isomer, unassigned) [Example 353]"

# The remaining lines, values behind:
row,SMILES,IC50
1,"COCC(CC(=O)O)c1ccc(N(C)C2CCOCC2)c(Nc2ccc(Cl)cc2)c1 (single isomer, unassigned) [Example 884, 3-(3-((4-chlorophenyl)amino)-4-(methyl(tetrahydro-2H-pyran-4-yl)amino)phenyl)-4-methoxybutanoic acid]",< 5 nM
2,"CCN(c1ccc(C(C)(C)CC(=O)O)cc1Nc1ccc(C#N)cc1)C1CCC(C)(O)CC1 (stereo not shown) [Example 4, 3-(3-((4-cyanophenyl)amino)-4-(ethyl(4-hydroxy-4-methylcyclohexyl)amino)phenyl)-3-methylbutanoic acid]",< 50 nM
3,"CC[C@@H](CC(=O)O)c1ccc(N(CC)C2CCOCC2)c(Nc2cnc(OC)cn2)c1 (single isomer, unassigned) [Example 464]",< 5 nM
4,"CCC(CC(=O)O)c1ccc(N2CCOC(C)(C)C2)c(Nc2ccc(C#N)cc2)c1 (single isomer, unassigned) [Example 1320, 3-(3-((4-cyanophenyl)amino)-4-(2,2-dimethylmorpholino)phenyl)pentanoic acid]",> 50 nM and < 50 nM
5,"CCC(CC(=O)O)c1ccc(N2CCOC[C@H]2C(C)C)c(Nc2ccc(F)cc2)c1 (single isomer, unassigned) [Example 889]",< 5 nM
6,"CCCN(c1ccc(C(C)(C)CC(=O)O)cc1Nc1ccc(Cl)cc1)C1CCOCC1 [Example 21, 3-(3-((4-Chlorophenyl)amino)-4-(propyl(tetrahydro-2H-pyran-4-yl)amino)phenyl)-3-methylbutanoic acid]",< 5 nM
7,"CCCN(c1ccc([C@H](CC)CC(=O)O)cc1Nc1ccc2c(c1)OC(F)(F)O2)C1CCOCC1 (single isomer, unassigned) [Example 550]",< 5 nM
8,"CCC(CC(=O)O)c1ccc(N2C[C@@H]3C[C@H]2CN3CC(F)F)c(Nc2ccc(C#N)cc2)c1 (single isomer, unassigned) [Example 450]",> 50 nM
9,"CCOc1ncc(Nc2cc(C(COC)CC(=O)O)ccc2N(CC)C2CCS(=O)(=O)CC2)cn1 (single isomer, unassigned) [Example 171, 3-(4-((1,1-dioxidotetrahydro-2H-thiopyran-4-yl)(ethyl)amino)-3-((2-ethoxypyrimidin-5-yl)amino)phenyl)-4-methoxybutanoic acid]",> 50 nM
10,"COCC(CC(=O)O)c1ccc(N(C)C2CCOCC2)c(NC(=O)Nc2ccc(Cl)cc2F)c1 (single isomer, unassigned) [Example 879, 3-(3-(3-(4-Chloro-2-fluorophenyl)ureido)-4-(methyl(tetrahydro-2H-pyran-4-yl)amino)phenyl)-4-methoxybutanoic acid]",> 50 nM
11,"CCCN(c1ccc(C(C)(C)CC(=O)O)cc1Nc1ccc(C#N)cc1)C1CCS(=O)(=O)CC1 [Example 187, 3-(3-((4-Cyanophenyl)amino)-4-((1,1-dioxidotetrahydro-2H-thiopyran-4-yl)(propyl)amino)phenyl)-3-methylbutanoic acid]",< 50 nM
12,"CCCN(c1ccc(C(COC)CC(=O)O)cc1Nc1ccc2c(c1)OC(F)(F)O2)C1CCOCC1 (single isomer, unassigned) [Example 571, 3-(3-((2,2-difluorobenzo[d][1,3]dioxol-5-yl)amino)-4-(propyl (tetrahydro-2H-pyran-4-yl)amino)phenyl)-4-methoxybutanoic acid]",< 5 nM
13,"CCOc1ncc(Nc2cc(C(CC)CC(=O)O)ccc2N2CCOCC2)cn1 (single isomer, unassigned) [Example 7 Enantiomer 2, 3-(3-((2-Ethoxypyrimidin-5-yl)amino)-4-morpholinophenyl)pentanoic acid]",> 50 nM
14,"CCOc1ccc(Nc2cc(C(C)CC(=O)O)ccc2N(CC)C2CCOCC2)nn1 (single isomer, unassigned) [Example 631, 3-(3-((6-ethoxypyridazin-3-yl)amino)-4-(ethyl (tetrahydro-2H-pyran-4-yl)amino)phenyl)butanoic acid]",< 50 nM
15,"CCC(CC(=O)O)c1ccc(N(CC)C2CCS(=O)(=O)CC2)c(Nc2ccc(C#N)cc2)c1 (single isomer, unassigned) [Example 335, 3-(3-((4-cyanophenyl)amino)-4-((1,1-dioxidotetrahydro-2H-thiopyran-4-yl)(ethyl)amino)phenyl) pentanoic acid]",< 50 nM
16,"CCOc1ncc(Nc2cc([C@H](CC)Cc3nnc[nH]3)ccc2N(CC)C2CCOCC2)cn1 [Example 1338, (R)-4-(1-(4H-1,2,4-Triazol-3-yl)butan-2-yl)-N2-(2-ethoxypyrimidin-5-yl)-N1-ethyl-N1-(tetrahydro-2H-pyran-4-yl)benzene-1,2-diamine]",< 50 nM
17,"CCC(CC(=O)O)c1ccc(N2CCOC(C)(C)C2)c(NC(=O)Nc2ccc(Cl)cc2F)c1 (single isomer, unassigned) [Example 1322 E1, 3-(3-(3-(4-Chloro-2-fluorophenyl)ureido)-4-(2,2-dimethylmorpholino)phenyl)pentanoic acid]",> 50 nM
18,"CCCN(c1ccc([C@@H](COC)CC(=O)O)cc1Nc1ccc(C#N)cc1)C1CCOCC1 (single isomer, unassigned) [Example 558]",< 5 nM
19,"CCOc1ncc(Nc2cc(C(CC)CC(=O)O)ccc2N2CCN(C(=O)OC(C)(C)C)CC2)cn1 (single isomer, unassigned) [Example 675, 3-(4-(4-(tert-Butoxycarbonyl)piperazin-1-yl)-3-((2-ethoxypyrimidin-5-yl)amino)phenyl)pentanoic acid]",> 50 nM
20,"CCOc1ncc(Nc2cc([C@H](CC)CC(N)=O)ccc2N(CC)C2CCOCC2)cn1 [Example 1332, (R)-3-(3-((2-Ethoxypyrimidin-5-yl)amino)-4-(ethyl(tetrahydro-2H-pyran-4-yl)amino)phenyl)pentanamide]",> 50 nM

# Reference: patent US9790169B2, “IDO inhibitors” (BRISTOL-MYERS SQUIBB COMPANY, priority 2015, dated 2017)
